Data as given in publication PMC4716659 (European journal of medicinal chemistry, 2015).
Values after ≈ are worked out from the molar mass of the structure shown.

Test system: methicillin-resistant Staphylococcus aureus (MRSA) ATCC 43300
Experiment: MIC, broth microdilution
Format: cell-based
Settings: MRSA ATCC 43300
[1] = Staphylococcus aureus, ATCC43300|MRSA

Structure (SMILES)	MIC [1]	MIC
CCCCc1ccc(-c2nc(C)c(C(=O)NC(=N)NC(=N)N)s2)cc1 [compound 10, 2-(4-Butylphenyl)-N-(N-carbamimidoylcarbamimidoyl)-4-methylthiazole-5-carboxamide]	> 45.8 µg/mL	–
CCCCc1ccc(-c2nc(C)c(C(=O)NNC(=N)N)s2)cc1 [compound 11, 2-(2-(4-Butylphenyl)-4-methylthiazole-5-carbonyl)hydrazinecarboximidamide]	> 42.4 µg/mL	–
CCCCc1ccc(-c2nc(C)c(C(=O)NC[C@@H](O)CO)s2)cc1 [compound 12, (R)-2-(4-Butylphenyl)-N-(2,3-dihydroxypropyl)-4methylthiazole-5-carboxamide]	44.5 µg/mL (≈ 128 µM)	–
CCCCc1ccc(-c2nc(C)c(C(=O)NCN(C)C)s2)cc1 [compound 13, 2-(4-Butylphenyl)-N-[(dimethylamino)methyl]-4-methylthiazole-5-carboxamide]	44.2 µg/mL (≈ 133 µM)	–
CCCCc1ccc(-c2nc(C)c(/C(N)=N/O)s2)cc1 [compound 15, (Z)-2-(4-Butylphenyl)-N′-hydroxy-4-methylthiazole-5-carboximidamide]	> 35.1 µg/mL	>37.0 µg/mL
CCCCc1ccc(-c2nc(C)c(-c3nnn[nH]3)s2)cc1 [compound 16, 2-(4-Butylphenyl)-4-methyl-5-(1H-tetrazol-5-yl)thiazole]	> 35.1 µg/mL	>38.3 µg/mL
[H]/N=C(\N)NN=C(C)c1sc(-c2ccc(N)cc2)nc1C [compound 19, (E)-2-(1-(4-Methyl-2-(4-aminophenyl)thiazol-5-yl)ethylidene) hydrazinecarboximidamide]	–	>36.9 µg/mL
CC(=O)c1sc(-c2ccc(-c3cccc4ccccc34)cc2)nc1C [compound 24, 1-(4-Methyl-2-(4-(naphthalen-1-yl)phenyl)thiazol-5-yl)ethanone]	> 43.9 µg/mL	–
